Results reported in patent US11400138B2, “Method for improving skin condition with bioactive compound” (TCI CO., LTD., priority 2020, dated 2022).

What was measured:
Assay type in all cases: cell-based
Conditions in all cases: 12.5 μg synthesized peptide per 1 mL cell culture medium, 24 h, 37° C.
[1] = system: FBN1 gene; assay: FBN1 gene expression in human fibroblasts (CCD-966SK), qPCR
Experimental: (§1) In order to confirm the effect of each of the amino acid sequences on gene expression in cells, human fibroblasts (CCD-966SK) and individual peptides were co-cultured, and then, gene expression in the cells was analyzed. 11 types of synthesized peptides were respectively subjected to cell experiments. In addition, the amino acid sequences of 11 types of synthesized peptides were respectively SEQ ID NO: 1, SEQ ID NO: 2, SEQ ID NO: 3, SEQ ID NO: 4, SEQ ID NO: 5, SEQ ID NO: 6, SEQ ID NO: 7, SEQ ID NO: 8, SEQ ID NO: 9, SEQ ID NO: 10 and SEQ ID NO: 11. Hereafter, the sequence numbers SEQ ID NO: 1 to SEQ ID NO: 11 will be referred to as groups.
(§2) Cell gene expression test refers to that after the human fibroblasts (purchased from Food Industry Research and Development Institute) and samples to be tested (such as peptides or compositions) were co-cultured, then, RNA in the cells was collected for analysis. Referring to Table 3, the gene expression test groups were divided into 13 groups. 11 groups therein were peptide experiment groups (Experiment group A to Experiment group K), 1 group was a composition experiment group (Experiment group L), and 1 group was a control group. In addition, each group was co-cultured with 1×10^5 human fibroblasts in a cell culture plate containing 2 mL of cell culture medium (X-VIVO™ 10). Experiment group A to Experiment group K respectively corresponded to 11 groups of peptide experiment groups of 11 types of synthesized peptides (SEQ ID NO: 1, SEQ ID NO: 2, SEQ ID NO: 3, SEQ ID NO: 4, SEQ ID NO: 5, SEQ ID NO: 6, SEQ ID NO: 7, SEQ ID NO: 8, SEQ ID NO: 9, SEQ ID NO: 10 and SEQ ID NO: 11) prepared according to Example III. Experiment group L was a composition experiment group added with the composition. In addition, the composition was identified in Example II to be tilapia fish skin collagen peptide powder (purchased from LAPI, Italy) including […] of peptides (i.e., SEQ ID NO: 1, SEQ ID NO: 2, SEQ ID NO: 3, SEQ ID NO: 4, SEQ ID NO: 5 and SEQ ID NO: 6). No peptide or composition was added in Control group.
(§3) For each group of peptide experiment groups (corresponding to Experiment group A to Experiment group K), according to a proportion of 12.5 μg of synthesized peptide per 1 mL of cell culture medium, the human fibroblasts were cultured for 24 h at 37° C. For the composition experiment group (corresponding to Experiment group L), according to a proportion of 100 mg of composition per 1 mL of cell culture medium, the human fibroblasts were cultured for 24 h. For Control group, no peptide was added, and the human fibroblasts were cultured for 24 h in a pure cell culture medium. In addition, after culture for 24 h, the peptide-containing cell culture medium or the pure culture medium was removed from each group, and cells in each group were washed by a phosphate buffer solution (PBS) so as to remove the residual culture medium. The washed cells were spun down and were subjected to cell lysis by a cell lysis solution (purchased from Geneaid company, Taiwan). Then, RNA in each group of cells was extracted by an RNA extraction kit (purchased from Geneaid company, Taiwan). Next, the extracted RNA was subjected to inverse transcription to obtain cDNA by a cDNA synthesis reagent (purchased from Geneaid company, Taiwan). In addition, the intracellular gene expression was observed by a polymerase chain reaction (PCR) instrument using different primers (as shown in Table 3). In addition, the primers firstly reacted by a green fluorescent dye of SYBR green dye (Applied Biosystem), and quantification of gene expression was performed by a 2-ΔΔCt method. It should be noted that the gene expression in the drawings corresponding to the experiments was shown in relative fold or percentage, wherein standard deviations were calculated by an STDEV formula of Excel software, and statistically significant differences were analyzed by one-tailed student t-test in the Excel software. […]

[2] = system: TIMP1 gene; assay: TIMP1 gene expression in human fibroblasts (CCD-966SK), qPCR
Experimental: as §1, §2
as §3, with “The washed cells were spun down and were subjected to cell lysis by a cell lysis solution (purchased from Geneaid company, Taiwan). Then, RNA in each group of cells was extracted by an RNA extraction kit (purchased from Geneaid company, Taiwan). Next, the extracted RNA was subjected to inverse transcription to obtain cDNA by a cDNA synthesis reagent (purchased from Geneaid company, Taiwan). In addition, the intracellular gene expression was observed by a polymerase chain reaction (PCR) instrument using different primers (as shown in Table 3).” left out

[3] = system: LOX gene; assay: LOX gene expression in human fibroblasts (CCD-966SK), qPCR
Experimental: as §1
as §2, with “No peptide or composition was added in Control group.” left out
(§4) For each group of peptide experiment groups (corresponding to Experiment group A to Experiment group K), according to a proportion of 12.5 μg of synthesized peptide per 1 mL of cell culture medium, the human fibroblasts were cultured for 24 h at 37° C. […] In addition, the primers firstly reacted by a green fluorescent dye of SYBR green dye (Applied Biosystem), and quantification of gene expression was performed by a 2-ΔΔCt method. It should be noted that the gene expression in the drawings corresponding to the experiments was shown in relative fold or percentage, wherein standard deviations were calculated by an STDEV formula of Excel software, and statistically significant differences were analyzed by one-tailed student t-test in the Excel software. […]

[4] = system: MMP2 gene; assay: MMP2 gene expression in human fibroblasts (CCD-966SK), qPCR
Experimental: as §1, with “groups. […]” for “groups.”
as §4

| Substance | FBN1 gene expression level, folds of Control group [1] | TIMP1 gene expression level, folds of Control group [2] | LOX gene expression level, folds of Control group [3] | MMP2 gene expression inhibition [4] | MMP2 gene expression percentage (Control group regarded as 100%) [4] |
| --- | --- | --- | --- | --- | --- |
| DQGIRLL (listed as Oreochromis mossambicus) [SEQ ID NO: 10, synthesized peptide of Plectin b] | about 6 folds |  |  |  |  |
| PGQPGLSGVPGADGKPGLPGP (listed as Oreochromis mossambicus) [SEQ ID NO: 8, synthesized peptide of tilapia skin, Collagen, type XVIII] | about 9 folds | about 5 folds |  |  |  |
| NGLPGSPGLP GRQGE (NGLPGSPGLPGRQGE; listed as Oreochromis mossambicus) [SEQ ID NO: 7, synthesized peptide of tilapia skin, Collagen, type XII] | about 5 folds |  |  |  |  |
| MFGKDVW (listed as Oreochromis mossambicus) [SEQ ID NO: 9, synthesized peptide of N-acetylglucosamine-1-phosphotransferase subunits alpha/beta] | about 4 folds | about 3 folds | about 2.5 folds |  |  |
| IGIFGQTGPPGE (listed as Oreochromis mossambicus) [SEQ ID NO: 3, synthesized peptide of tilapia skin, Collagen, type IV] | about 3 folds |  |  | about 60% | about 40% |
| QRGEPGPNGAV (listed as Oreochromis mossambicus) [SEQ ID NO: 11, synthesized peptide of tilapia skin, Procollagen, type I] | about 5 folds | about 5 folds | about 3 folds |  |  |
| PGPMGPMGINGA (listed as Oreochromis mossambicus) [SEQ ID NO: 4, synthesized peptide of tilapia skin, Collagen, type V] | about 16 folds |  |  |  |  |
| AVNGLTLAGGRGLNTGAALT (listed as Oreochromis mossambicus) [SEQ ID NO: 5, synthesized peptide of tilapia skin, Collagen, type VI] | about 6 folds |  | about 2.5 folds |  |  |
| ALVQNREGP (listed as Oreochromis mossambicus) [SEQ ID NO: 6, synthesized peptide of tilapia skin, Collagen, type VII] | about 5 folds | about 3 folds |  |  |  |
| GLPGVQGNI (listed as Oreochromis mossambicus) [SEQ ID NO: 2, synthesized peptide of tilapia skin, Collagen, type IV] | about 6 folds | about 7.8 folds | about 5.7 folds |  |  |
